Reference: patent US8530434B2, “Nitroxide free radical synergized antineoplastic agents” (The Trustees of California State University, priority 2006, dated 2013)
“Also recorded” adds a separate entry of the source.

Assays:
[1] = test system: MCF-7, human breast cancer cells and KB, human liver cancer cells; test: LDH measurement of cytotoxicity; conditions: for % cytotoxicity: LDH assay, 72 hours incubation, same conditions and same concentrations, rank among the four treatments, cell line not specified
Procedure: MCF-7, human breast cancer cells and KB, human liver cancer cells were maintained in an RPMI 1640 medium, which was supplemented with 10% (v/v) heat-inactivated FBS and 1% (v/v) penicillin-streptomycin (100 U/mL penicillin G and 100 μg/mL streptomycin). The cells were incubated and then allowed to grow into a monolayer at a Petri dish at 37° C. in 5% CO2 and 90% relative humidity. The cells were detached by trypsinisation. Specifically, to detach the monolayer of cells, the medium was removed from the cell culture dish and the cells were washed by PBS buffer solution. Then 1 mL of the enzyme of trypsin was transferred to the cell dish and then the dish was incubated for 3 min. After the incubation, we transferred 4 mL of the RPMI 1640 medium to the cell dish and pipetted the cell suspension up and down to mix them well. The cell suspension was examined by inverted phase contrast microscope to make sure cells were separated into a single cell suspension. We transferred the cell suspension to a 10 mL-tube and centrifuged it to separate cell pellet from the medium. The cells were washed twice in the RPMI 1640 medium by centrifugation at 300×g for 5 min, and then the washed cells were re-suspended in 10 mL of medium. Cell number and viability were determined by using a dye of trypan blue, a special counting chamber, the hemocytometer and microscope. The cell density was calculated by the formula, cell concentration=(N1+N2+N3+N4+N5)×4×10^3 cells/mL, where N1 to N5 denote the counting numbers in the chamber. The cell suspension was diluted to a final concentration of 100,000 cells/mL in the RPMI 1640 medium.
The cells were initially seeded in a 96-well plate with a cell density of 10,000 cells per well by transferring 100 μL of 100,000 cells/mL suspension to each well using a multi-pipette. The 96-well plate was incubated for 24 hours at 37° C. in a humidified, 5% CO2 atmosphere. After incubation of 24 h, the growth medium was removed and replaced with 100 μL of fresh medium with different concentrations of drugs in 3 repeats.
Performed serial two-fold dilution from Row H to Row A. Use extra column as the negative control containing 100 μL of the medium and cells only. Before the drug solutions were administered, removed the growth medium from each well and then replace 100 μL of each drug solution. Each concentration had 3 repeats. Incubate the plate for 72 hours.
10 μl of Lysis Solution was added from row A to H, and incubated for 45 minutes in a humidified chamber at 37° C., under 5% CO2.
50 μl supernatant was transferred from all wells to a fresh 96-well flat bottom enzymatic assay plate. […] 50 μl Stop Solution was added to each well, and the absorbances were recorded at a wavelength of 490 nm within one hour after adding the stop solution.

[2] = Solubility in D2O (sample preparation for NMR)
Description: (§1) We did the ^1H and ^31P NMR experiments at a 600 MHz NMR spectrometer for all three samples.

[3] = test system: short single strand DNA units comprising of 3′-ATCGT-5′; test: 1H and 31P NMR study of interaction with short single strand DNA; format: binding; conditions: 1:1 molar ratio with DNA in DMSO-d6, 600 MHz NMR
Description: as §1

SMILES | % cytotoxicity [1] | potency compared with co-administration of the two drugs ([1]; summary statement) | solubility in D2O [2] | interaction with DNA (changes of 1H and 31P NMR spectra) [3]
CC1(C)CC(OC(=O)CCCc2ccc(N(CCCl)CCCl)cc2)CC(C)(C)N1[O] [chlorambucil-TEMPOL adduct] | the most % cytotoxicity | higher potency than mere co-administration of the two drugs | weakly soluble | interact with the DNA collaboratively
O=C(O)CCCc1ccc(N(CCCl)CCCl)cc1 [chlorambucil] | the third | – | weakly soluble | interaction of the alkylating agent with DNA
CC1(C)CC(O)CC(C)(C)N1[O] [TEMPOL, 4-hydroxy-2,2,6,6-tetramethylpiperidine-N-oxyl] | the least; also recorded: very low % cytotoxicity | – | – | interacts with DNA
